Measured values: patent publication US11440935B2, “3″,5″-dimethoxybenzoyl-3′-amino-3′-deoxy adenosine-5′-triphosphates and pharmaceutical uses thereof” (Danmir Therapeutics, LLC, priority 2018, dated 2022)
“And” between values parts separate entries of the source, which are not always exact repeats. Identical values can stand only once. “Also recorded” adds a separate entry of the source. Counter-ions that a name gives are not always drawn.

Key:
[1] = system: conscious guinea-pigs; assay: Aerosolized ATP-induced cough in conscious free moving guinea-pigs; format: in vivo, guinea-pig
Method: This study was performed in 6 guinea-pigs. The housing room was constantly ventilated, and the temperature kept at ˜23° C. After quarantine, the animals were individually placed in a whole-body, unrestrained, plethysmograph chamber (model PLY3215, Buxco Electronics Inc., Troy, N.Y.) for ˜40 min once a day for two continuous days before the cough test. All GPs were weighed before the cough study.
ATP was purchased from Sigma-Aldrich (Cat #A2383-10G). Solutions of ATP used for aerosol challenge were freshly made just prior to use by dissolving the powder in 0.9% saline (NaCl) solution. Solutions of DT-0111 used for aerosol administration were freshly made by dissolving the powder in 0.9% saline (NaCl) solution.
A plethysmograph chamber was continuously flushed with normoxic (21% O2 and 79% N2) room air at 2 L/min. The same amount of air was drawn through the chamber base outlets using a Buxco bias flow regulator to keep the chamber bias flow balanced. ATP or DT solution was aerosolized by using a vibrating mesh nebulizer (Ireland Ltd., Galway Ireland, AG-AL1100). The output rate of delivered aerosol was around 0.5 ml/min with droplet size (volume median diameter) at 2.5-4.0 μm (manufacture's indications). The aerosol was mixed with airflow and directly delivered into the plethysmograph chamber. The latter was placed in a standard chemical fume hood (size: 3×6 ft) installed in a standard laboratory.
A guinea-pig was placed in the chamber again after adaptation. Following stabilization, #1 guinea-pig was exposed to aerosolized ATP at 6 mg/ml, 24 mg/ml, and then 48 mg/ml for 5 min with an interval of 30 min. The remaining animals (#2-#6 guinea-pigs) were exposed to aerosolized ATP at 48 mg/ml for 5 min. Approximately 140 min later, the same dose of ATP was repeated immediately after DT-0111 aerosol inhalation (12 mg/ml for 5 min). […] The cough sound and behavioral activities were continuously monitored and recorded before (for 3 min), during 5 min aerosol delivery, and 20 min after cessation of the delivery.
Setup of the cough recording system. The top of the plethysmograph chamber was connected with a plastic tube that was attached by the nebulizer. Normoxic air driven by the nebulizer controller was flowed into the chamber and sucked out by the bias flow regulator with the in and out flow volume balanced (2.0 L/min). To detect cough, a microphone system was mounted in the roof of the chamber to record sound; a video camera was placed outside of the chamber to monitor animal body posture; and a Buxco pneumotachograph (differential pressure transducer) attached to the chamber to record airflow. All signals generated by video camera, microphone, and pressure transducer were amplified and recorded continuously by PowerLab/8 sp (model ML 785; ADInstruments Inc., Colorado Springs, Colo.) and a computer with the LabChart Pro 7 software.
Cough count. A typical cough response, as reported before (Girard et al., Eur Respir J, 1995; Blasko et al., American Journal of Advanced Drug Delivery. 5:131-138, 2017; Corboz et al., Journal of Pharmacology and Experimental Therapeutics. 363: 348-357, 2017), was defined by the simultaneous appearance of: 1) a transient and great change in the airflow (a rapid inspiration followed by rapid expiration); 2) a typical cough sound with the peak power density at 1-2 kHz in frequency spectrum (sneeze at 3.5-6.5 kHz); and 3) animal body (head) posture and movement.

[2] = target: T1, P2X2/3 receptor (Rattus norvegicus, UniProt P49653+P49654); assay: Nodose ganglion neuron assay of P2X2/3 receptor antagonism (whole-cell voltage-clamp); format: cell-based; details: rat nodose ganglionic cell; for antagonism of ATP-induced inward current: ATP 10 μM, whole-cell voltage clamp
T1 construct: Single neurons were enzymatically isolated from rats' nodose ganglia; from tissue; host or cells: dissociated nodose ganglion neurons of 17-day-old male Sprague-Dawley rats
T1 sequence (P49653 1-472): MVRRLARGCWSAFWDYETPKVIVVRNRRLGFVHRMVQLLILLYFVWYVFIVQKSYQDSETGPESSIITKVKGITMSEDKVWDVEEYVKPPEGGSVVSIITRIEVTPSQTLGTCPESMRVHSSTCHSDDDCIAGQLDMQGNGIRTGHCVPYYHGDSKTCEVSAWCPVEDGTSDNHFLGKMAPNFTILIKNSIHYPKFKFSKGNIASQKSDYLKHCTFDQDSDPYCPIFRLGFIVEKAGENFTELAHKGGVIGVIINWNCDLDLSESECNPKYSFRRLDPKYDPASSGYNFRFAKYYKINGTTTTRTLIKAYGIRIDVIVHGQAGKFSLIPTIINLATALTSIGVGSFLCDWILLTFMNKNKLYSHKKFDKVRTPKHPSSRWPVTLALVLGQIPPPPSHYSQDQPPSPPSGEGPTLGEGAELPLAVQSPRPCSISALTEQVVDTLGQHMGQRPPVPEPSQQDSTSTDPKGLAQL
T1 sequence (P49654 1-397): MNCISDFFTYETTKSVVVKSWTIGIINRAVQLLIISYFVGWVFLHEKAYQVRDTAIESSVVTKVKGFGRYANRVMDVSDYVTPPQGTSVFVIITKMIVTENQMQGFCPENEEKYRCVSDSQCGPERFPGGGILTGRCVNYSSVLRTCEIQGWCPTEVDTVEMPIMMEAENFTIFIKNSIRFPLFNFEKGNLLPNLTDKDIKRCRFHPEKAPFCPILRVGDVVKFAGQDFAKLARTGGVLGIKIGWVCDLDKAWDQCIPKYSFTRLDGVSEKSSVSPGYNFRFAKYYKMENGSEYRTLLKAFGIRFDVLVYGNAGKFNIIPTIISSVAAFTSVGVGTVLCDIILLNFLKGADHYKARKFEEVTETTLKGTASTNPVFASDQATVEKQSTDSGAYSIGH
Method: Single neurons were enzymatically isolated from rats' nodose ganglia as described by Zhong et al., Br J Pharmacol 1998; 125, 771-781. Briefly, 17- day old male Sprague-Dawley rats were killed by CO2 inhalation. Ganglia were rapidly dissected and placed in Leibovitz's L-15 medium (Life Technologies, Paisley, UK). Ganglia were desheathed, cut and incubated in 4 ml Ca^2+/Mg^2+-free Hanks' balanced salt solution with 10 mm Hepes buffer (pH 7.0) (HBSS) (Life Technologies) containing 1.5 mg ml-1 collagenase (Class-II; Worthington Biochemical Corporation, Reading, UK) and 6 mg ml-1 bovine serum albumin (Sigma) at 37° C. for 40 min. Ganglia were then incubated with 4 ml HBSS containing 1 mg ml-1 trypsin (Sigma) at 37° C. for 20 min. The solution was replaced with 3 ml of growth medium comprising L-15 medium supplemented with 10% bovine serum, 50 ng ml-1 nerve growth factor, 0.2% NaHCO3, 5.5 mg ml-1 glucose, 200 IU ml-1 penicillin and 200 μg ml-1 streptomycin. The ganglia were dissociated into single neurons by gentle trituration. The cells were then centrifuged at 160 g for 5 min, resuspended in 1 ml of growth medium, and plated onto 35 mm Petri dishes coated with 10 μg ml-1 laminin (Sigma). Cells were maintained at 37° C. in a humidified atmosphere containing 5% CO2 and used between 2 and 48 hours after plating.
Whole-cell voltage-clamp recordings were performed at room temperature using an Axopatch 200B amplifier (Axon Instruments, Union City, Calif., USA). Membrane potential was held at […]. The external solution contained (mM): 154 NaCl, 4.7 KCl, 1.2 MgCl2, 2.5 CaCl2), 10 Hepes, 5.6 glucose, and the pH was adjusted to 7.4 using NaOH. Recording electrodes (resistance […]) were filled with an internal solution which contained (mm): 56 citric acid, 3 MgCl2, 10 CsCl, 10 NaCl, […], 0.1 EGTA, 10 tetraethylammonium chloride, and the pH was adjusted to 7.2 using CsOH (total Cs+concentration 170 mm). […] Solution exchange measured by changes in open tip current was complete in 200 ms; however, complete exchange of solution around an intact cell was slower (<1 s). […]

[3] = system: P2X3 receptor; details: guinea pig airway-specific primary nodose ganglion cell afferents; cited from earlier work
[4] = system: P2X3-P2X2/3; details: experimental animals; cited from earlier work
[5] = ATP (48 mg/ml) aerosol 5 min alone, per guinea-pig

Q: For Nc1ncnc2c1ncn2[C@@H]1O[C@H](COP(=O)(O)OP(=O)(O)OP(=O)(O)O)[C@@H](O)[C@H]1O [ATP, adenosine 5′-triphosphate], which “cough evoked by aerosolized ATP” value ([1]; ATP 48 mg/ml, 5 min exposure, all animals) is on record?
A: The value was “evoked significant coughs”.

Q: What about the “Bout Cough B1# (cough number in first bout)” value [1, 5] of the same compound?
A: Its value is 24 and 14 and 18 and 19 and 21.

Q: What about the “Individual Cough” value [1, 5] of the same compound?
A: Its value is 3 and 0 (2×) and 1 (3×).

Q: What about the Subtotal coughs ([1]; ATP (48 mg/ml) aerosol 5 min alone, per guinea-pig and Mean) of the same compound?
A: Its Subtotal coughs is 27 and 24 and 35 and 19 and 22.

Q: What does the source list for COc1cc(OC)cc(C(=O)NC2C(O)[C@H](n3cnc4c(N)ncnc43)O[C@@H]2COP(=O)(O)OP(=O)(O)OP(=O)(O)O)c1 (stereo partly drawn) [Compound 11, 3″,5″-Dimethoxybenzoyl-3′-amino-3′-deoxyadenosine-5′-triphosphate Triethyl Ammonium Salt]?
A: antagonism of ATP-induced inward current ([2]; listed as 3″,5″-dimethoxybenzoyl-3′-amino-3′-deoxyadenosine-5′-triphosphate triethylammoni, Ammonium Salt): substantially abrogated; antagonism of ATP-induced inward current ([2]; listed as compound 11, Ammonium Salt): substantially abrogated; also recorded: complete antagonism at the higher concentrations; reversibility of antagonism on washout ([2]; after washing out the antagonist): reversible

Q: Which “effect on TRPV4 receptor activation effects (Aδ fiber stimulation and coughing)” value [3] does the source give for COc1cc(C(C)C)c(Oc2cnc(N)nc2N)cc1I [AF-353] here?
A: The value was “markedly attenuated”.

Q: Which “effect on cyclophosphamide (CYP)-induced cystitis” value [4] does the source give for O=C(O)c1cc(C(=O)O)c(C(=O)N(Cc2cccc(Oc3ccccc3)c2)[C@H]2CCCc3ccccc32)cc1C(=O)O [Compound A-317491] here?
A: The value was “inhibit cyclophosphamide (CYP)-induced cystitis”.
